Measurements from article PMC8948292, “Combining PEGylated mito-atovaquone with MCT and Krebs cycle redox inhibitors as a potential strategy to abrogate tumor cell proliferation” (Scientific Reports, 2022).

Experiments:
[1] = molecular target: mitochondrial complex III (MiaPaCa-2 cells) (Homo sapiens, UniProt P00156); assay: Complex III-dependent oxygen consumption in permeabilized cells, Seahorse XF-96; type: cell-based
Procedure, shortened: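 MiaPaCa-2 cells were treated 24 h with Mito-PEG-ATO analogs, and OCR was read on a Seahorse XF-96; basal respiration was taken in intact cells. For complex I, permeabilized cells received 10 mM pyruvate, 1.5 mM malate and 10 mM malonate; for complex III, 0.5 mM duroquinol, 1 µM rotenone and 10 mM malonate, both in mannitol/sucrose buffer. IC50 values were derived from the OCR data.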

MiaPaCa-2 cells [2] = assay: Intracellular ATP, luciferase-based assay; type: cell-based, human
Method: After seeding cells overnight at 2 × 10^4 per well in 96-well plates, cells were treated for 24 h. Intracellular ATP levels were determined in cell lysates using a luciferase-based assay per the manufacturer’s instructions (cat# FLAA, Sigma Aldrich, St. Louis, MO). In brief, the assay starts by rapidly adding an ATP assay mix solution (luciferase and luciferin solution, cat# FLAAM) to cell lysates. This is swirled briskly to mix, and the amount of light produced is immediately measured with a luminometer. The results were normalized to the total protein level measured in each well, as determined by the Bradford method (Bio-Rad Laboratories, Hercules, CA).

MiaPaCa-2 cells [3] = assay: Intracellular oxidants: HPLC of hydroethidine (HE) oxidation products; type: cell-based, human
Method: Hydroethidine (HE) or dihydroethidium was used as a fluorogenic probe to assess the cellular generation of superoxide and other peroxidatic oxidants[36],[37]. Cells were treated for 24 h with Mito-PEG5-ATO alone or in combination with AZD-3965 or CPI-613, followed by 1 h incubation with HE (10 µM). Cells were harvested and the cell pellet stored at − 80 °C until the day of high-performance liquid chromatography (HPLC) analysis. Sample preparation and HPLC analysis were performed as previously reported[32],[36]. 2-OH-E^+ was used as a specific marker for superoxide, and E^+-E^+ was used as a specific marker for intracellular one-electron oxidants[36],[37].
HE was purchased from Invitrogen (Carlsbad, CA). Stock solutions (20 mM and 5 mM, respectively) were prepared in deoxygenated DMSO (dimethyl sulfoxide) and stored at − 80 °C until use. Ethidium cation (bromide salt) was purchased from Sigma-Aldrich. The hydroxylated oxidation products from HE (2-OH-E^+) were prepared by reacting the probes with Fremy’s salt as previously described in detail[70],[71]. The dimeric products were prepared by reacting the probes with excess potassium ferricyanide, as detailed elsewhere. Synthesized standards of all oxidation products of HE were purified by HPLC. HPLC-based measurements of HE and its oxidation products were performed using an Agilent 1100 system equipped with absorption and fluorescence detectors and refrigerated autosampler (4 °C). The samples (50 µL) were injected into a reverse phase column (Phenomenex, Kinetex C18, 100 mm × 4.6 mm, 2.6 µm) equilibrated with 20% acetonitrile and 80% water containing 0.1% trifluoroacetic acid. The compounds were eluted by increasing the content of acetonitrile from 20 to 56% over 4.5 min at a flow rate of 1.5 mL/min. The absorption detector was used to measure 3,8-diamino-6-phenylphenanthridine (at 290 nm; retention time: 2.5 min), HE-E^+ (at 290 nm; retention time: 4.1 min), E^+-E^+ (at 290 nm; retention time: 4.3 min), and HE (at 370 nm; retention time: 1.6 min). A fluorescence detector (initial excitation at 358 nm and emission at 440 nm) was used to monitor HE (when present at low concentrations). At 2.3 min after injection, the fluorescence parameters were changed (excitation at 490 nm and emission at 567 nm) for sensitive detection of 2-OH-E^+ (retention time: 3.2 min) and E^+ (retention time: 3.3 min).

mitochondrial complex III (MiaPaCa-2 cells), sequence (P00156 whole entry): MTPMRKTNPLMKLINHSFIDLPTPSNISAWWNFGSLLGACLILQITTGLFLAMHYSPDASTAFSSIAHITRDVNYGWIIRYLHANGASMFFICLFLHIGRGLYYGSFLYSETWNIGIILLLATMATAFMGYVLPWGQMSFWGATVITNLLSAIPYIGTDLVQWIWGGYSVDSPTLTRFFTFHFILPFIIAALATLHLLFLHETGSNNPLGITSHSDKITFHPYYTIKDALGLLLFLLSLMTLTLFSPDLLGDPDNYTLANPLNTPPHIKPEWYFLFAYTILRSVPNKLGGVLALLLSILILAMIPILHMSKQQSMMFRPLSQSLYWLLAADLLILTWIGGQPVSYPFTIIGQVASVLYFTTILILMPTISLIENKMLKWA
mitochondrial complex III (MiaPaCa-2 cells), sequence (P47985 whole entry partner): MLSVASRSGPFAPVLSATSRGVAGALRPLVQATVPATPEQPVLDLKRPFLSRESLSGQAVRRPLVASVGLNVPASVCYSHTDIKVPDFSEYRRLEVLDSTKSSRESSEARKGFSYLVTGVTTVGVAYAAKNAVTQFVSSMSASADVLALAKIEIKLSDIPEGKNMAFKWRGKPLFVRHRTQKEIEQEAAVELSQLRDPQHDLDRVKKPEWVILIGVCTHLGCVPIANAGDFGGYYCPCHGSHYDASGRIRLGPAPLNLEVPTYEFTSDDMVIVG

For `O=C1C(OCCOCCOCCOCCOCC[P+](c2ccccc2)(c2ccccc2)c2ccccc2)=C([C@H]2CC[C@H](c3ccc(Cl)cc3)CC2)C(=O)c2ccccc21.[Br-]` [Mito-PEG5-ATO, [14-((3-(trans-4-(4-chlorophenyl)cyclohexyl)-1,4-dioxo-1,4-dihydronaphthalen-2-yl)oxy)-3,6,9,12-tetraoxatetradecyl]triphenylphosphonium bromide], the “Complex III activity (OCR, % of control)” value ([1]; 0.003 µM) was 94.9 % of control, the “Complex III activity (OCR, % of control)” value ([1]; 0.01 µM) was 94.3 % of control and the “Complex III activity (OCR, % of control)” value ([1]; 0.03 µM) was 84.2 % of control. For the same compound, the “Complex III activity (OCR, % of control)” value ([1]; 0.05 µM) was 89.9 % of control, the “Complex III activity (OCR, % of control)” value ([1]; 0.075 µM) was 89.1 % of control and the “Complex III activity (OCR, % of control)” value ([1]; 0.1 µM) was 87.5 % of control. The “Complex III activity (OCR, % of control)” value ([1]; 0.3 µM) was 61.6 % of control, the “Complex III activity (OCR, % of control)” value ([1]; 0.5 µM) was 38.4 % of control and the “Complex III activity (OCR, % of control)” value ([1]; 1 µM) was 17.8 % of control. For the same compound, the “Complex III activity (OCR, % of control)” value ([1]; 3 µM) was 8.0 % of control, the IC50 ([1]; MiaPaCa-2 cells, 24 h treatment, antimycin A-inhibitable OCR, read-out: IC50, complex III-induced oxygen consumption (Complex III activity)) was 390 nM and the “Intracellular ATP levels” value (MiaPaCa-2 cells [2]; MiaPaCa-2 cells, 24 h, alone and with AZD-3965 or syrosingopine) was “not due to intracellular ATP depletion”. The “intracellular ATP level” value (MiaPaCa-2 cells [2]; Mito-PEG5-ATO 0.02 µM, AZD-3965 0 µM, 24 h) was 34.79 nmol ATP/mg protein, the “intracellular ATP level” value (MiaPaCa-2 cells [2]; Mito-PEG5-ATO 0.02 µM, syrosingopine 0 µM, 24 h) was 33.08 nmol ATP/mg protein and the “intracellular ATP level” value (MiaPaCa-2 cells [2]; Mito-PEG5-ATO 0.04 µM, AZD-3965 0 µM, 24 h) was 29.69 nmol ATP/mg protein. The “intracellular ATP level” value (MiaPaCa-2 cells [2]; Mito-PEG5-ATO 0.04 µM, syrosingopine 0 µM, 24 h) was 29.16 nmol ATP/mg protein, the “intracellular ATP level” value (MiaPaCa-2 cells [2]; Mito-PEG5-ATO 0.06 µM, AZD-3965 0 µM, 24 h) was 29.11 nmol ATP/mg protein and the “intracellular ATP level” value (MiaPaCa-2 cells [2]; Mito-PEG5-ATO 0.06 µM, syrosingopine 0 µM, 24 h) was 28.90 nmol ATP/mg protein. The “intracellular ATP level” value (MiaPaCa-2 cells [2]; Mito-PEG5-ATO 0.08 µM, AZD-3965 0 µM, 24 h) was 28.15 nmol ATP/mg protein, the “intracellular ATP level” value (MiaPaCa-2 cells [2]; Mito-PEG5-ATO 0.08 µM, syrosingopine 0 µM, 24 h) was 27.83 nmol ATP/mg protein and the “intracellular ATP level” value (MiaPaCa-2 cells [2]; Mito-PEG5-ATO 0.1 µM, AZD-3965 0 µM, 24 h) was 27.57 nmol ATP/mg protein. For the same compound, the “intracellular ATP level” value (MiaPaCa-2 cells [2]; Mito-PEG5-ATO 0.1 µM, syrosingopine 0 µM, 24 h) was 27.64 nmol ATP/mg protein, the “intracellular ATP level” value (MiaPaCa-2 cells [2]; Mito-PEG5-ATO 0.15 µM, AZD-3965 0 µM, 24 h) was 28.14 nmol ATP/mg protein and the “intracellular ATP level” value (MiaPaCa-2 cells [2]; Mito-PEG5-ATO 0.15 µM, syrosingopine 0 µM, 24 h) was 28.11 nmol ATP/mg protein. For the same compound, the “intracellular ATP level” value (MiaPaCa-2 cells [2]; Mito-PEG5-ATO 0.5 µM, AZD-3965 0 µM, 24 h) was 26.75 nmol ATP/mg protein, the “intracellular ATP level” value (MiaPaCa-2 cells [2]; Mito-PEG5-ATO 0.5 µM, syrosingopine 0 µM, 24 h) was 26.12 nmol ATP/mg protein and the “HE oxidation products 2-OH-E+, E+ and E+-E+” value (MiaPaCa-2 cells [3]; 24 h treatment, then HE 10 µM 1 h) was “slight but significant increase”.
With `Cc1[nH]nc(C(F)(F)F)c1Cc1sc2c(c1C(=O)N1C[C@](C)(O)CO1)c(=O)n(C)c(=O)n2C(C)C` [AZD-3965] the “Effect on the decrease in complex III-induced oxygen consumption induced by Mito-PEG5-ATO” value ([1]; MiaPaCa-2 cells, with Mito-PEG5-ATO) was “Neither AZD-3965 nor V-9302 significantly affected”, the “intracellular ATP level” value (MiaPaCa-2 cells [2]; AZD-3965 10 µM, Mito-PEG5-ATO 0 µM, 24 h treatment, mean n=4) was 28.98 nmol ATP/mg protein and the “intracellular ATP level” value (MiaPaCa-2 cells [2]; AZD-3965 20 µM, Mito-PEG5-ATO 0 µM, 24 h treatment, mean n=4) was 29.42 nmol ATP/mg protein. The “intracellular ATP level” value (MiaPaCa-2 cells [2]; AZD-3965 30 µM, Mito-PEG5-ATO 0 µM, 24 h treatment, mean n=4) was 28.90 nmol ATP/mg protein, the “intracellular ATP level” value (MiaPaCa-2 cells [2]; AZD-3965 40 µM, Mito-PEG5-ATO 0 µM, 24 h treatment, mean n=4) was 30.34 nmol ATP/mg protein and the “intracellular ATP level” value (MiaPaCa-2 cells [2]; AZD-3965 60 µM, Mito-PEG5-ATO 0 µM, 24 h treatment, mean n=4) was 30.77 nmol ATP/mg protein. For the same compound, the “intracellular ATP level” value (MiaPaCa-2 cells [2]; AZD-3965 80 µM, Mito-PEG5-ATO 0 µM, 24 h treatment, mean n=4) was 30.40 nmol ATP/mg protein, the “intracellular ATP level” value (MiaPaCa-2 cells [2]; AZD-3965 100 µM, Mito-PEG5-ATO 0 µM, 24 h treatment, mean n=4) was 31.41 nmol ATP/mg protein and the “intracellular ATP level” value (MiaPaCa-2 cells [2]; AZD-3965 150 µM, Mito-PEG5-ATO 0 µM, 24 h treatment, mean n=4) was 32.36 nmol ATP/mg protein. The “intracellular ATP level” value (MiaPaCa-2 cells [2]; AZD-3965 200 µM, Mito-PEG5-ATO 0 µM, 24 h treatment, mean n=4) was 30.51 nmol ATP/mg protein, the “intracellular ATP level” value (MiaPaCa-2 cells [2]; AZD-3965 400 µM, Mito-PEG5-ATO 0 µM, 24 h treatment, mean n=4) was 31.60 nmol ATP/mg protein and the “intracellular ATP level” value (MiaPaCa-2 cells [2]; AZD-3965 600 µM, Mito-PEG5-ATO 0 µM, 24 h treatment, mean n=4) was 31.63 nmol ATP/mg protein. For the same compound, the “Intracellular oxidant-induced HE-derived products, in combination with Mito-PEG5-ATO” value (MiaPaCa-2 cells [3]; 24 h, with Mito-PEG5-ATO 0.05 µM, AZD-3965 200 µM or CPI-613 200 µM) was “modest and additive increase”.
